Data reported in patent US20120046308A1, “NOVEL ALPHA-PHENOXYBENZENEACETIC ACID DERIVATIVE AND PHARMACEUTICAL PREPARATION COMPRISING SAME” (KOWA COMPANY, LTD., priority 2009, published 2012).
Where two headings read alike, the source gives them in different places.

Key:
human PPARγ2 [1] = biological target: T1, human PPARγ2 (Homo sapiens, UniProt P37231); test: PPARγ activation activity, Gal4-PPARγ2 LBD luciferase transfection assay using COS7 cells; format: cell-based; conditions: for EC50: 16 hours, luciferase activity relative to rosiglitazone = 100%; for Emax: COS-7, 16 h, maximum activity strength relative to the maximum activity of rosiglitazone, read-out: % MAX vs Rosiglitazone
T1 construct: the amino acids 182 to 505 of human PPARγ2; expressed in transfected cells; host or cells: COS7 cells (African green monkey kidney)
T1 sequence (P37231 182-505): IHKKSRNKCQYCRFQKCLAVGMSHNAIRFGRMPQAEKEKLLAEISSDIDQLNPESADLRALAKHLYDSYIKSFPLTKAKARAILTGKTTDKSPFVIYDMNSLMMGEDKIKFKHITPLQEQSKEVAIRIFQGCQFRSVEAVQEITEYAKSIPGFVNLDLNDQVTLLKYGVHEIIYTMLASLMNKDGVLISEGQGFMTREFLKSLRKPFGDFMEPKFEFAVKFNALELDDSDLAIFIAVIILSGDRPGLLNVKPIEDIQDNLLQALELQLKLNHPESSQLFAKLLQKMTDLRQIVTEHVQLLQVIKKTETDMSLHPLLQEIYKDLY
Experimental: The agonistic activity of the compounds of the invention on PPARγ was measured based on the transfection assay using COS7 cells (DS Pharma Biomedical Co., Ltd., Osaka, Japan), which are the cell line derived from the kidney of the African green monkey. COS7 cells were cultured under 5% CO2 concentration, and DMEM medium containing 10% fetal bovine serum, glutamic acid, and antibiotics was used as a medium.
As an expression vector, a chimera in which DNA binding domain of Gal4, which is a yeast transcription factor, and ligand binding domain of human PPARγ2 are fused, i.e., a fused product between the amino acids 1 to 147 of Gal4 transcription factor and the amino acids 182 to 505 of human PPARγ2, was used. Furthermore, as a reporter vector, a firefly luciferase containing five copies of Gal4 recognition sequence in the promoter region was used. Plasmid transfection to the cells was performed according to a method which uses jetPEI (trade name, manufactured by Funakoshi Co., Ltd., Tokyo, Japan). Furthermore, β-galactosidase expression vector was employed as an internal standard.
After the transfection of the cells, the medium was replaced with a DMEM medium (containing 1% serum) added with the compound, and the cells were further cultured for 16 hours. After that, the luciferase activity and β-galactosidase activity in the cell lysis solution were measured.
For the present test, dimethyl sulfoxide (DMSO) was used for dissolution and dilution of the test compounds, and during the cell treatment, the DMSO concentration in DMEM medium (containing 1% serum) was adjusted to 0.1%. As a positive compound, rosiglitazone (trade name, manufactured by ALEXIS Corporation, Switzerland) was used. The luciferase activity (%) of the test compounds (1 to 30 μmol/L) was calculated when the luciferase activity of rosiglitazone (3 to 10 μmol/L) is 100% and the luciferase activity in the absence of the test compound is 0%. The 50% effective concentration of the test compound (EC50, 50% effect concentration) was calculated by using SAS Preclinical Package Ver5.0 (trade name, manufactured by SAS institute Japan Co., Tokyo, Japan), which is a statistical analysis program.

human PPARγ2 [2] = biological target: T1, human PPARγ2; test: as above; format: cell-based; conditions: maximum activity relative to rosiglitazone
[3] = biological target: T2, angiotensin II type 1 receptor (Oryctolagus cuniculus, UniProt P34976); test: Angiotensin II antagonistic activity in isolated rabbit blood vessels (thoracic aorta ring contraction); conditions: angiotensin II (10 nM)-induced contraction
T2 construct: By using a specimen of isolated rabbit blood vessels; from tissue; host or cells: rabbit (New Zealand White) thoracic aorta ring
T2 sequence (P34976 1-359): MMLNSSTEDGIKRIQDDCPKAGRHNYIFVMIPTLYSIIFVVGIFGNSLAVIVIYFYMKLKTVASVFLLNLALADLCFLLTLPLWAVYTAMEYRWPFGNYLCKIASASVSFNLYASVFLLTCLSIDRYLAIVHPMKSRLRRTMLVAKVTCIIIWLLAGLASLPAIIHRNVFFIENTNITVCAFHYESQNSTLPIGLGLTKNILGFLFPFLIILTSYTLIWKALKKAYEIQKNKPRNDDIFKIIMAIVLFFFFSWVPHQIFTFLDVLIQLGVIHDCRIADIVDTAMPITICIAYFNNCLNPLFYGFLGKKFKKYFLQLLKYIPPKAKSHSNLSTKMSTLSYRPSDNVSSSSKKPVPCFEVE
Experimental: By using a specimen of isolated rabbit blood vessels, antagonistic activity of the compounds of the invention against angiotensin II type 1 receptor was estimated from a dose-response curve of angiotensin II-induced blood vessel contraction.
During the measurement, the inside temperature of the magnus bath was maintained at 37° C. and the bath was continuously ventilated with a sufficient amount of mixed gas (95% O2 and 5% CO2). The angiotensin II-induced contraction was converted into a relative value (%) that is based on the angiotensin II (10 nM)-induced contraction in the absence of the compounds of each example. From the concentration-response curve obtained therefrom, 50% inhibition concentration (IC50 value) was calculated by using SAS Preclinical Package Ver5.0 (trade name, manufactured by SAS institute Japan Co., Tokyo, Japan), which is a statistical analysis program.

## CCCCc1nc(C)n(-c2ccc(OCc3ccccc3)cc2)c(=O)c1Cc1cc(CCC)c(OC(C(=O)O)c2ccccc2)c(CCC)c1 (stereo not drawn) [Example 12, 2-[4-[[1-{4-(benzyloxy)phenyl}-4-butyl-2-methyl-6-oxo-1,6-dihydropyrimidin-5-yl]methyl]-2,6-dipropylphenoxy]-2-phenyla cetic acid]
Human PPARγ2 [1]; COS7 cells, read-out: EC50
  EC50: 440 nM
Human PPARγ2 [1]
  Emax: 57.5%
Human PPARγ2 [2]
  maximum activity compared with that of termisartan: equal to or more than that of termisartan

## CCCCc1nc(C)n(-c2ccc(OC(C)C)cc2)c(=O)c1Cc1cc(CCC)c(OC(C(=O)O)c2ccccc2)c(CCC)c1 (stereo not drawn) [Example 14]
Human PPARγ2 [1]; COS7 cells, read-out: EC50
  EC50: 600 nM
Human PPARγ2 [1]
  Emax: 63%
Human PPARγ2 [2]
  maximum activity compared with that of termisartan: equal to or more than that of termisartan

## CCCCc1nc(C)n(-c2ccccn2)c(=O)c1Cc1cc(CCC)c(OC(C(=O)O)c2ccc(Cl)cc2)c(CCC)c1 (stereo not drawn) [Example 9]
Human PPARγ2 [1]; COS7 cells, read-out: EC50
  EC50: 540 nM
Human PPARγ2 [1]
  Emax: 47%
Human PPARγ2 [2]
  maximum activity compared with that of termisartan: equal to or more than that of termisartan

## CCCCc1nc(C)n(CCOC)c(=O)c1Cc1cc(CCC)c(OC(C(=O)O)c2ccccc2)c(CCC)c1 (stereo not drawn) [Example 33, 2-[4-[{4-butyl-1-(2-methoxyethyl)-2-methyl-6-oxo-1,6-dihydropyrimidin-5-yl}methyl]-2,6-dipropylphenoxy]-2-phenylacetic acid]
[3]
  IC50: 250 nM
Human PPARγ2 [1]; COS7 cells, read-out: EC50
  EC50: 2670 nM

## CCCCc1nc(C)n(-c2ncc(OC)cn2)c(=O)c1Cc1cc(CCC)c(OC(C(=O)O)c2ccccc2)c(CCC)c1 (single isomer, unassigned; (-)) [Example 16, (−)-2-[4-[{4-butyl-1-(5-methoxypyrimidin-2-yl)-2-methyl-6-oxo-1,6-dihydropyrimidin-5-yl}methyl]-2,6-dipropylphenoxy]-2-phenylacetic acid]
[3]
  IC50: 58 nM
Human PPARγ2 [1]; COS7 cells, read-out: EC50
  EC50: 1460 nM
Human PPARγ2 [1]
  Emax: 44.4%

## CCCc1nc2c(C)cc(-c3nc4ccccc4n3C)cc2n1Cc1ccc(-c2ccccc2C(=O)O)cc1 [telmisartan, reference compound]
[3]
  IC50: 25 nM
Human PPARγ2 [1]
  Emax: 30 to 50%
Human PPARγ2 [1]; EC50, COS7 cells
  EC50: 1000 to 5000 nM

## CCCCc1nc(C)n(-c2ncc(OC)cn2)c(=O)c1Cc1cc(CCC)c(OC(C(=O)O)c2ccccc2)c(CCC)c1 (stereo not drawn) [Example 15]
[3]
  IC50: 92 nM
Human PPARγ2 [1]; COS7 cells, read-out: EC50
  EC50: 2710 nM
Human PPARγ2 [1]
  Emax: 47.2%
Human PPARγ2 [2]
  maximum activity compared with that of termisartan: equal to or more than that of termisartan

## CCCCc1nc(C)n(Cc2ccccc2)c(=O)c1Cc1cc(CCC)c(OC(C(=O)O)c2ccccc2)c(CCC)c1 (stereo not drawn) [Example 28, 2-[4-{(1-benzyl-4-butyl-2-methyl-6-oxo-1,6-dihydropyrimidin-5-yl)methyl}-2,6-dipropylphenoxy]-2-phenylacetic acid]
[3]
  IC50: 724 nM
Human PPARγ2 [1]; COS7 cells, read-out: EC50
  EC50: 850 nM
Human PPARγ2 [1]
  Emax: 21.3%

## CCCCc1nc(C)n(CC2CCCCC2)c(=O)c1Cc1cc(CCC)c(OC(C(=O)O)c2ccccc2)c(CCC)c1 (stereo not drawn) [Example 30, 2-[4-[(4-butyl-1-(cyclohexylmethyl)-2-methyl-6-oxo-1,6-dihydropyrimidin-5-yl}methyl]-2,6-dipropylphenoxy]-2-phenylacet ic acid]
[3]
  IC50: 836 nM
Human PPARγ2 [1]; COS7 cells, read-out: EC50
  EC50: 280 nM
Human PPARγ2 [1]
  Emax: 28.5%
